# Assay results taken from the kinase profiling compilation of Christmann-Franck et al. (2016).
# Tests used:
# Experiment in all cases: radiometric filter-binding kinase assay, Kinase HotSpot
# Conditions in all cases: compound 0.5 µM; ATP 10 µM
# STK33 (human) = STK33 (human) (UniProt Q9BYT3)
# ALK (human) = ALK (human) (UniProt Q9UM73)
# EPHA7 (human) = EPHA7 (human) (UniProt Q15375)
# EPHA3 (human) = EPHA3 (human) (UniProt P29320)
# PKN2 (human) = PKN2 (human) (UniProt Q16513)
# MST1R (human) = MST1R (human) (UniProt Q04912)
# CDK4 CCND3 (human) = CDK4 CCND3 (human) (UniProt P30281+P11802)
# RPS6KA6 KD1 KD2 (human) = RPS6KA6 KD1 KD2 (human) (UniProt Q9UK32)
# NLK (human) = NLK (human) (UniProt Q9UBE8)
# FRK (human) = FRK (human) (UniProt P42685)
# PAK4 (human) = PAK4 (human) (UniProt O96013)
# MINK1 (human) = MINK1 (human) (UniProt Q8N4C8)
# MUSK (human) = MUSK (human) (UniProt O15146)
# PHKG1 (human) = PHKG1 (human) (UniProt Q16816)
# OXSR1 (human) = OXSR1 (human) (UniProt O95747)
# GSG2 (human) = GSG2 (human) (UniProt Q8TF76)
# CAMK4 (human) = CAMK4 (human) (UniProt Q16566)
# CAMK1D (human) = CAMK1D (human) (UniProt Q8IU85)
# TAOK1 (human) = TAOK1 (human) (UniProt Q7L7X3)
# DYRK3 (human) = DYRK3 (human) (UniProt O43781)
# TEC (human) = TEC (human) (UniProt P42680)
# MAP4K5 (human) = MAP4K5 (human) (UniProt Q9Y4K4)
# GSK3A (human) = GSK3A (human) (UniProt P49840)
# LCK (human) = LCK (human) (UniProt P06239)
# TSSK1B (human) = TSSK1B (human) (UniProt Q9BXA7)
# MAPKAPK5 (human) = MAPKAPK5 (human) (UniProt Q8IW41)
# MAPKAPK3 (human) = MAPKAPK3 (human) (UniProt Q16644)
# MARK1 (human) = MARK1 (human) (UniProt Q9P0L2)
# FLT1 (human) = FLT1 (human) (UniProt P17948)
# NEK9 (human) = NEK9 (human) (UniProt Q8TD19)
# ROS1 (human) = ROS1 (human) (UniProt P08922)
# ZAP70 (human) = ZAP70 (human) (UniProt P43403)
# TAOK2 (human) = TAOK2 (human) (UniProt Q9UL54)
# PRKCZ (human) = PRKCZ (human) (UniProt Q05513)
# EPHA1 (human) = EPHA1 (human) (UniProt P21709)
# AKT1 (human) = AKT1 (human) (UniProt P31749)
# ACVRL1 (human) = ACVRL1 (human) (UniProt P37023)
# STK39 (human) = STK39 (human) (UniProt Q9UEW8)
# HIPK2 (human) = HIPK2 (human) (UniProt Q9H2X6)
# CSF1R (human) = CSF1R (human) (UniProt P07333)
# GRK7 (human) = GRK7 (human) (UniProt Q8WTQ7)
# SRC (human) = SRC (human) (UniProt P12931)
# Sequence of OXSR1 (human) (O95747 whole entry, looked up): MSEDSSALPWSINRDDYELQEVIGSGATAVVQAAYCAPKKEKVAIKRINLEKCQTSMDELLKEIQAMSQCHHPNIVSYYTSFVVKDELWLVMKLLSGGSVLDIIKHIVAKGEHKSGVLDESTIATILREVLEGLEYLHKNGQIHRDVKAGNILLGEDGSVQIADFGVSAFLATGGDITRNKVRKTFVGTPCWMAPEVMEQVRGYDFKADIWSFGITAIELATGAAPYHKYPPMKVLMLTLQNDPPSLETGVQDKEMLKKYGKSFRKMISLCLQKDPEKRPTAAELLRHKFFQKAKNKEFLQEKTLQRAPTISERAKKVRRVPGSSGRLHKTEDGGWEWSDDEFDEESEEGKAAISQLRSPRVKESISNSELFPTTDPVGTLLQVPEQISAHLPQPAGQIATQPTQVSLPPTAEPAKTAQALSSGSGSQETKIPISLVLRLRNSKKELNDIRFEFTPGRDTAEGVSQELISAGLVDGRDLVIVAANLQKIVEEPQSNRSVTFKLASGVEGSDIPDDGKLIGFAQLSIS
# Sequence of ALK (human) (Q9UM73 whole entry, looked up): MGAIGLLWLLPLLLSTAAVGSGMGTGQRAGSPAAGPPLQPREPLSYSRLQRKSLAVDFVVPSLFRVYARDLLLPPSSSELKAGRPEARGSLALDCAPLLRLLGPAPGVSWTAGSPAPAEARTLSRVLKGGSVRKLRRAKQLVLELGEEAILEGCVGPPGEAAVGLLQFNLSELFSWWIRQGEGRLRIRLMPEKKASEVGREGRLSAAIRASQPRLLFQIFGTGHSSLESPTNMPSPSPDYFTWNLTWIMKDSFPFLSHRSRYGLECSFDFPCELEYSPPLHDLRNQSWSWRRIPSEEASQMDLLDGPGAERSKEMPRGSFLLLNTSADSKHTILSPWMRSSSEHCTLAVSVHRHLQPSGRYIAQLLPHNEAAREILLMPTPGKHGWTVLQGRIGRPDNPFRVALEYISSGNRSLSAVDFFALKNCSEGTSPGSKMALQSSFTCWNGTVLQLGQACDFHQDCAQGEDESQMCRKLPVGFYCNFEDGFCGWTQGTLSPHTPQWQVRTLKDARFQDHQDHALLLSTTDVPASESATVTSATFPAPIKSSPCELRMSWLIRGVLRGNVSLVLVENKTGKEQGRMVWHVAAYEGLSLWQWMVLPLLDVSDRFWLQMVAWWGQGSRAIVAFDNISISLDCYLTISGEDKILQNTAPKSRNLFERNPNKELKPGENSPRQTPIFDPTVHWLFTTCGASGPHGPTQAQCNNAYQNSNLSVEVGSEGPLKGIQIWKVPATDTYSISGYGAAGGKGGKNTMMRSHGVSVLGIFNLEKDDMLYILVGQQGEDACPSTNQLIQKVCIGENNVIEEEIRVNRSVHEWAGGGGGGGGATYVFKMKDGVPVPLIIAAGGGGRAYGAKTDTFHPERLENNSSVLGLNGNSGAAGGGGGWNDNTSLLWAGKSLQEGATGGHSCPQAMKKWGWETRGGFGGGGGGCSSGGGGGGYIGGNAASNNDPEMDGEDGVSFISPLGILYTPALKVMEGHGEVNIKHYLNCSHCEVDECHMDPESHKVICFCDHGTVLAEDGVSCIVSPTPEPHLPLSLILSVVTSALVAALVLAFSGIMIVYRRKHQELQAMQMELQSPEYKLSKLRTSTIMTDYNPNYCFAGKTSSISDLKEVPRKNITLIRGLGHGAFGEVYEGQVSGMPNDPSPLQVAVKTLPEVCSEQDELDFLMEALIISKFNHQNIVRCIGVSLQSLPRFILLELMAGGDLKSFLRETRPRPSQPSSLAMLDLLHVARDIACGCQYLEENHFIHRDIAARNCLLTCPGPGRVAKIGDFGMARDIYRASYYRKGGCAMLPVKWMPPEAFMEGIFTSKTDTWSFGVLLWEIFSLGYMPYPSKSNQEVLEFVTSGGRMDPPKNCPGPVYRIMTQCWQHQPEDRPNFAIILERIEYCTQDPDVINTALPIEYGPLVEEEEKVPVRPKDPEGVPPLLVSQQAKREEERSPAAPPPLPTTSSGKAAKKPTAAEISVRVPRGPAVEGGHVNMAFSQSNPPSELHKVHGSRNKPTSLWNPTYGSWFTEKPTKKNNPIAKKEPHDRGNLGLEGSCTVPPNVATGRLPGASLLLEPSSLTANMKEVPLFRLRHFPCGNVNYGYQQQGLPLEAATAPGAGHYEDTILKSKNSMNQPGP
# Sequence of MARK1 (human) (Q9P0L2 whole entry, looked up): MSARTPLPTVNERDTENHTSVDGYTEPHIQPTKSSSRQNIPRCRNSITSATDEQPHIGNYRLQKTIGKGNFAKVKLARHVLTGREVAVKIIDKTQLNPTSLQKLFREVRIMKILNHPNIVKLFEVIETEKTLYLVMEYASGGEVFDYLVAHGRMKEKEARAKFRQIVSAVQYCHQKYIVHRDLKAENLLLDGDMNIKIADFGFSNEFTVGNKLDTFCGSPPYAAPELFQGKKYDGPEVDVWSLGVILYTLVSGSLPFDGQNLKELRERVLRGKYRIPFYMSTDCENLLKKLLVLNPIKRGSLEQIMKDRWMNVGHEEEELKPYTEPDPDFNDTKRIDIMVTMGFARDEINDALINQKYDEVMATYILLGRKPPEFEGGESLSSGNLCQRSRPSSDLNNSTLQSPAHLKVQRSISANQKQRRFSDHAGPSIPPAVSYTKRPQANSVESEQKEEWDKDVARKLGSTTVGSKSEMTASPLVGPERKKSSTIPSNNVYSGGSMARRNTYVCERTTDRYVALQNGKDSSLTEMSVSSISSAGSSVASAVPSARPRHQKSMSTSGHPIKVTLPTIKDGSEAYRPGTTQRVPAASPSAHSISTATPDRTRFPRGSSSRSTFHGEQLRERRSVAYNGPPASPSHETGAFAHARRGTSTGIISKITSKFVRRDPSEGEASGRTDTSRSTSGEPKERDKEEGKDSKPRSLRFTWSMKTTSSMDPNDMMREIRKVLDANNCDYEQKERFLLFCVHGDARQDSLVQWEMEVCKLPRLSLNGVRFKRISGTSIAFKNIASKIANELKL
# Sequence of LCK (human) (P06239 whole entry, looked up): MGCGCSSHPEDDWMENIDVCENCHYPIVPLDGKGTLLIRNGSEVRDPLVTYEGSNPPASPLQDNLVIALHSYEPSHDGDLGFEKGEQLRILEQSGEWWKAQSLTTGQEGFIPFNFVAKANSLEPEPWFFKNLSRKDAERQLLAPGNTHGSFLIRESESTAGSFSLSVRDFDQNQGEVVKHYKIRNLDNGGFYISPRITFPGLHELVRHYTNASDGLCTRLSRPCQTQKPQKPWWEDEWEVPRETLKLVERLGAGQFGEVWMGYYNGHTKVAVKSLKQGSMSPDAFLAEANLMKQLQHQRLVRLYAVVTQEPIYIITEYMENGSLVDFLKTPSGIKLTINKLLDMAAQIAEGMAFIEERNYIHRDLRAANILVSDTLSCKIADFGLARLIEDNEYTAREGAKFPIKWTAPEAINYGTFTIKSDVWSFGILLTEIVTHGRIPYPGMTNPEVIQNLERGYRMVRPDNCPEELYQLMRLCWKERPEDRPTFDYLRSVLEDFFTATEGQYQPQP
# Sequence of MST1R (human) (Q04912 whole entry, looked up): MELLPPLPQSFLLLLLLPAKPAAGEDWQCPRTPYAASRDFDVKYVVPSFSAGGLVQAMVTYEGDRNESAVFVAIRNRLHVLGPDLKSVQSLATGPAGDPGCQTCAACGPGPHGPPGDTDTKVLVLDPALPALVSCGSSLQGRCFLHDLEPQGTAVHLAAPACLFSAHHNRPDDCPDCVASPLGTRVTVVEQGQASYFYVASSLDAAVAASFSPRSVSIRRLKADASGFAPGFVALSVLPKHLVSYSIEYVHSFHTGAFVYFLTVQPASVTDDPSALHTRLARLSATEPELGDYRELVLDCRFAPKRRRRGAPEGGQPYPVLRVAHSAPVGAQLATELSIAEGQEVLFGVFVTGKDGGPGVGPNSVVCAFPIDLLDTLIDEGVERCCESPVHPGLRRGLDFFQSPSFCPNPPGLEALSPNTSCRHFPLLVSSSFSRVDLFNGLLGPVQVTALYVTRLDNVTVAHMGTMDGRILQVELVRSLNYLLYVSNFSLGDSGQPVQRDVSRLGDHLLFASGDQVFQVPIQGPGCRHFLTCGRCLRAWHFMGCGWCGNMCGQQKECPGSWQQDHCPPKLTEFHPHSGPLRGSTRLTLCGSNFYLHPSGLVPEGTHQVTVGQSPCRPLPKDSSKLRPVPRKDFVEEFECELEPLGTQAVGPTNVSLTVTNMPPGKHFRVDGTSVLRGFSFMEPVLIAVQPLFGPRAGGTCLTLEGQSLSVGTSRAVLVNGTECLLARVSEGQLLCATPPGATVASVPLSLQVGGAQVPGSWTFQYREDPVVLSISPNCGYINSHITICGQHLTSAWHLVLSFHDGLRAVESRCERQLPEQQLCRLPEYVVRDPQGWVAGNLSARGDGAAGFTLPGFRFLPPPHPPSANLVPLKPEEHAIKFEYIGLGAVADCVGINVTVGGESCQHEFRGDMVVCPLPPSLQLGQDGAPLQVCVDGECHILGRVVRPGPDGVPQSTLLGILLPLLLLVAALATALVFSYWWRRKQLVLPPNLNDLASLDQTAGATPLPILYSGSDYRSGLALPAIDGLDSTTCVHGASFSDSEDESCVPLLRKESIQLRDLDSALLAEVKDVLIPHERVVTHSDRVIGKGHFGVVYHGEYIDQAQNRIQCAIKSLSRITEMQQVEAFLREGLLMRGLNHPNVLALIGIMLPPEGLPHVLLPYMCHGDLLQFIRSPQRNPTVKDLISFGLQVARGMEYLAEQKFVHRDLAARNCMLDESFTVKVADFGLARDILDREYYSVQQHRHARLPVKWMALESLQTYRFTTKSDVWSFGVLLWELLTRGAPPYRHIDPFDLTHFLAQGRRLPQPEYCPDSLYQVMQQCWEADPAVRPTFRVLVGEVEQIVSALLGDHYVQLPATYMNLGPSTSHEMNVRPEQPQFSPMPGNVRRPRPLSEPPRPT
smiles,measurement,setting,value
O=C(NC(NC(=S)Nc1ccc(F)c([N+](=O)[O-])c1)C(Cl)(Cl)Cl)C(c1ccccc1)c1ccccc1 (centres undefined),residual activity,STK33 (human),99.6%
same,residual activity,ALK (human),110%
same,residual activity,EPHA7 (human),109%
same,residual activity,EPHA3 (human),105%
same,residual activity,PKN2 (human),88.1%
same,residual activity,MST1R (human),102%
same,residual activity,CDK4 CCND3 (human),93.7%
same,residual activity,RPS6KA6 KD1 KD2 (human),94.7%
same,residual activity,NLK (human),106%
same,residual activity,FRK (human),103%
same,residual activity,PAK4 (human),118%
same,residual activity,MINK1 (human),110%
same,residual activity,MUSK (human),106%
same,residual activity,PHKG1 (human),104%
same,residual activity,OXSR1 (human),98.3%
same,residual activity,GSG2 (human),109%
same,residual activity,CAMK4 (human),98.5%
same,residual activity,CAMK1D (human),99%
same,residual activity,TAOK1 (human),104%
same,residual activity,DYRK3 (human),100%
same,residual activity,TEC (human),201%
same,residual activity,MAP4K5 (human),91%
same,residual activity,GSK3A (human),105%
same,residual activity,LCK (human),91.8%
same,residual activity,TSSK1B (human),93.4%
same,residual activity,MAPKAPK5 (human),102%
same,residual activity,MAPKAPK3 (human),106%
same,residual activity,MARK1 (human),101%
same,residual activity,FLT1 (human),97.2%
same,residual activity,NEK9 (human),110%
same,residual activity,ROS1 (human),99.5%
same,residual activity,ZAP70 (human),94.2%
same,residual activity,TAOK2 (human),103%
same,residual activity,PRKCZ (human),98%
same,residual activity,EPHA1 (human),88.1%
same,residual activity,AKT1 (human),118%
same,residual activity,ACVRL1 (human),107%
same,residual activity,STK39 (human),77%
same,residual activity,HIPK2 (human),118%
same,residual activity,CSF1R (human),96.2%
same,residual activity,GRK7 (human),101%
same,residual activity,SRC (human),96.1%
Nc1nc(Nc2ccc(S(N)(=O)=O)cc2)nn1C(=S)Nc1c(F)cccc1F,residual activity,STK33 (human),35.1%
same,residual activity,ALK (human),16.7%
same,residual activity,EPHA7 (human),14.2%
same,residual activity,EPHA3 (human),85.9%
same,residual activity,PKN2 (human),19.1%
same,residual activity,MST1R (human),56%
same,residual activity,CDK4 CCND3 (human),3.67%
same,residual activity,RPS6KA6 KD1 KD2 (human),2.42%
same,residual activity,NLK (human),45.1%
same,residual activity,FRK (human),70.6%
same,residual activity,PAK4 (human),47.6%
same,residual activity,MINK1 (human),3.06%
same,residual activity,MUSK (human),8.02%
same,residual activity,PHKG1 (human),26%
same,residual activity,OXSR1 (human),67.6%
same,residual activity,GSG2 (human),85.3%
same,residual activity,CAMK4 (human),98.8%
same,residual activity,CAMK1D (human),93.4%
same,residual activity,TAOK1 (human),11.3%
same,residual activity,DYRK3 (human),98.5%
same,residual activity,TEC (human),106%
same,residual activity,MAP4K5 (human),1.71%
same,residual activity,GSK3A (human),6.3%
same,residual activity,LCK (human),23.6%
same,residual activity,TSSK1B (human),13.7%
same,residual activity,MAPKAPK5 (human),52.2%
same,residual activity,MAPKAPK3 (human),89.6%
same,residual activity,MARK1 (human),2.68%
same,residual activity,FLT1 (human),11.4%
same,residual activity,NEK9 (human),39.1%
same,residual activity,ROS1 (human),1.68%
same,residual activity,ZAP70 (human),86.9%
same,residual activity,TAOK2 (human),11.5%
same,residual activity,PRKCZ (human),83.7%
same,residual activity,EPHA1 (human),37.4%
same,residual activity,AKT1 (human),103%
same,residual activity,ACVRL1 (human),15.1%
same,residual activity,STK39 (human),76.5%
same,residual activity,HIPK2 (human),62.1%
same,residual activity,CSF1R (human),10.6%
same,residual activity,GRK7 (human),96.6%
same,residual activity,SRC (human),41.6%
